Patent publication US9611267B2, “Substituted tricyclic compounds as FGFR inhibitors” (Incyte Corporation, priority 2012, dated 2017)

How the values were obtained:
Format in all cases: biochemical
FGFR2 = FGFR2 (Homo sapiens (Human), UniProt P21802); experiment: FGFR enzymatic assay (FRET peptide phosphorylation), FGFR2; settings: FGFR2 enzyme 0.01 nM, ATP 100 μM
In short: (§1)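 Recombinant kinase was pre-incubated 5–10 min with serially diluted inhibitor in HEPES buffer (10 mM MgCl2, 5 mM DTT, pH 7.5; buffer described for FGFR3). Peptide phosphorylation ran 1 h at 25 °C and was detected by FRET after ~1 h equilibration. IC50 values come from variable-slope sigmoidal fits.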

FGFR1 = FGFR1 (Homo sapiens (Human), UniProt P11362); experiment: FGFR enzymatic assay (FRET peptide phosphorylation), FGFR1; settings: FGFR1 enzyme 0.02 nM, ATP 210 μM
Chain of FGFR1 (P11362 22-822): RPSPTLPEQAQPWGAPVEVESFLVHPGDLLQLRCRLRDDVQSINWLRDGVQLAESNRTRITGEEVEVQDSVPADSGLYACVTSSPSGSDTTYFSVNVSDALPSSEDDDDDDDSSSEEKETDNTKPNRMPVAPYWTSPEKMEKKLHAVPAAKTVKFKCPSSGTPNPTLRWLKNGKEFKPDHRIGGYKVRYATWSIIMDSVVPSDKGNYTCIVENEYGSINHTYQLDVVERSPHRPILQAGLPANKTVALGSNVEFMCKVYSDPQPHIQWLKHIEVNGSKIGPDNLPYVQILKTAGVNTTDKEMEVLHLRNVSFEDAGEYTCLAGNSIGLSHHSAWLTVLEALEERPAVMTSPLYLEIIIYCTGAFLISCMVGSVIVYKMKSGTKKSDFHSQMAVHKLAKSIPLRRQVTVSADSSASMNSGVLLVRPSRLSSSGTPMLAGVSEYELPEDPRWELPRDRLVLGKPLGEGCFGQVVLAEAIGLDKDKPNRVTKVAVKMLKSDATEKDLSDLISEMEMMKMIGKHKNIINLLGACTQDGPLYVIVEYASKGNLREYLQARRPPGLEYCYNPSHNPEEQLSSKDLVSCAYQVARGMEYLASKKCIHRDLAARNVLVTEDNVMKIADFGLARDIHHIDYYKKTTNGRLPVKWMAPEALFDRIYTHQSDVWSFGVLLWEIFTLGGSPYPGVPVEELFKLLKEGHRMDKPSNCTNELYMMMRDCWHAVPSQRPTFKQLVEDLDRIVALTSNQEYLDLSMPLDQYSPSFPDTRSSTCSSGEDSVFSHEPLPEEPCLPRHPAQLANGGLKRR
In short: as §1

FGFR3 = FGFR3 (Homo sapiens (Human), UniProt P22607); experiment: FGFR enzymatic assay (FRET peptide phosphorylation), FGFR3; settings: FGFR3 enzyme (Millipore), ATP 140 μM
Chain of FGFR3 (P22607 23-806): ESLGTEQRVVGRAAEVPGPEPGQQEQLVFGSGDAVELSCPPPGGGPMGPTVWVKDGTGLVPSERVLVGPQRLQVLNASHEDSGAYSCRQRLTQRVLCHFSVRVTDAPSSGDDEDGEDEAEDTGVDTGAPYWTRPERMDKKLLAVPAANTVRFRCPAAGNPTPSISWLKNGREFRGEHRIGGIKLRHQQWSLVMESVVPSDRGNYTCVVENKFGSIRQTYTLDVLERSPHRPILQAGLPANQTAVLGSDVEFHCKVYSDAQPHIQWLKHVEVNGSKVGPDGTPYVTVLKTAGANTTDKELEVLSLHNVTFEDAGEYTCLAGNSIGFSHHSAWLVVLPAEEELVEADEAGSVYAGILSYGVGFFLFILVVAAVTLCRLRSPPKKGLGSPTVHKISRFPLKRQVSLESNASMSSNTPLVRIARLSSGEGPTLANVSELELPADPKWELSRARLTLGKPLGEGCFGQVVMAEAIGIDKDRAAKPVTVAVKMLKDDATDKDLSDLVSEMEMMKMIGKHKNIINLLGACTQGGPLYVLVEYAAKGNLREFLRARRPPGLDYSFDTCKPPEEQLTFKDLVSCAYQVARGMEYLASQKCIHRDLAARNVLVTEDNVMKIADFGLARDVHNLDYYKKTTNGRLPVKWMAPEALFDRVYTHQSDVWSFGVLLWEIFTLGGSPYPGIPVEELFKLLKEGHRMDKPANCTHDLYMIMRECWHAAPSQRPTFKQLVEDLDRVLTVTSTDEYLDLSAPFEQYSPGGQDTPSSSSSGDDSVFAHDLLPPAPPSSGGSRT
In short: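 FRET assay of peptide phosphorylation by FGFR3 in HEPES pH 7.5 buffer with MgCl2, EGTA, Tween-20 and DTT. Enzyme was pre-incubated 5-10 min with compound, and the reaction ran 1 hr at 25° C. IC50 came from a variable-slope sigmoidal fit.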

Measured: IC50

Chain of FGFR2 (P21802 22-821): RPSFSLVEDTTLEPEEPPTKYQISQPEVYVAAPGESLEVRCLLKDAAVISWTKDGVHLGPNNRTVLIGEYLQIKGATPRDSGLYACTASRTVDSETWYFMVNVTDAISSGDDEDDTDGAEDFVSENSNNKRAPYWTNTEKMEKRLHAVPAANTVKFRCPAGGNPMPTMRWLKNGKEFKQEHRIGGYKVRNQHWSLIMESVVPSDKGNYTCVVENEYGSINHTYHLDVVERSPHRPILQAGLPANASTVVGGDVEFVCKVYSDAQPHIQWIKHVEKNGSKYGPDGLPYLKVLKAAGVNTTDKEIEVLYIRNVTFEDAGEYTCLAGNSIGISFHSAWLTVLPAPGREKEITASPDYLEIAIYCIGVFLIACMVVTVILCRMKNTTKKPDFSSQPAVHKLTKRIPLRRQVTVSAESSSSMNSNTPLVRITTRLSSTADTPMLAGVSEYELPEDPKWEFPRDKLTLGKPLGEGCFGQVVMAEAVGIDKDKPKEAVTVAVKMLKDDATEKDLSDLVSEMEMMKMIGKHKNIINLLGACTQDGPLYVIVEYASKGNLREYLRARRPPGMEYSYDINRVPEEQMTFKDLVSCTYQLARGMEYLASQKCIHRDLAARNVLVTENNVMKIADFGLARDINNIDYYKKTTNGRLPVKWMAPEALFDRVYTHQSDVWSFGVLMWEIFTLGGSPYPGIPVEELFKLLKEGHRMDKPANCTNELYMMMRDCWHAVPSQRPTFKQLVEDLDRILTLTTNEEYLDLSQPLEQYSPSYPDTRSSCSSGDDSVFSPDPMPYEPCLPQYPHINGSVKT

COc1cc(OC)c(F)c(N2Cc3cnc4[nH]c(CN5CCN(C)CC5)cc4c3N(C3CC3)C2=O)c1F [Example 187, 1-cyclopropyl-3-(2,6-difluoro-3,5-dimethoxyphenyl)-8-[(4-methylpiperazin-1-yl)methyl]-1,3,4,7-tetrahydro-2H-pyrrolo[3′,2′:5,6]pyrido[4,3-d]pyrimidin-2-one]
< 100 nM: all assays above

COc1cc(OC)c(F)c(N2Cc3cnc4[nH]ncc4c3N([C@H]3CCOC3)C2=O)c1F [Example 89, 3-(2,6-difluoro-3,5-dimethoxyphenyl)-1-[(3S)-tetrahydrofuran-3-yl]-1,3,4,7-tetrahydro-2H-pyrazolo[4′,3′:5,6]pyrido[4,3-d]pyrimidin-2-one]
< 100 nM: all assays above

COc1cc(OC)c(F)c(N2Cc3cnc4[nH]ncc4c3N(c3ccccc3OC(F)(F)F)C2=O)c1F [Example 92, 3-(2,6-difluoro-3,5-dimethoxyphenyl)-1-[2-(trifluoromethoxy)phenyl]-1,3,4,7-tetrahydro-2H-pyrazolo[4′,3′:5,6]pyrido[4,3-d]pyrimidin-2-one]
< 100 nM: all assays above

COc1cc(OC)c(F)c(N2Cc3cnc4[nH]c(CN5CC[C@@H](C#N)C5)cc4c3N(C)C2=O)c1F [Example 209, (3R)-1-{[3-(2,6-difluoro-3,5-dimethoxyphenyl)-1-methyl-2-oxo-2,3,4,7-tetrahydro-1H-pyrrolo[3′,2′:5,6]pyrido[4,3-d]pyrimidin-8-yl]methyl}pyrrolidine-3-carbonitrile]
< 100 nM: all assays above

COc1cc(OC)c(F)c(N2Cc3cnc4[nH]c(CCN5CCC5)cc4c3N(C)C2=O)c1F [Example 115, 8-(2-azetidin-1-ylethyl)-3-(2,6-difluoro-3,5-dimethoxyphenyl)-1-methyl-1,3,4,7-tetrahydro-2H-pyrrolo[3′,2′:5,6]pyrido[4,3-d]pyrimidin-2-one]
< 100 nM: all assays above

COc1cc(OC)c(F)c(N2Cc3cnc4[nH]c(Cn5ccnc5)cc4c3N(C)C2=O)c1F [Example 137, 3-(2,6-difluoro-3,5-dimethoxyphenyl)-8-(1H-imidazol-1-ylmethyl)-1-methyl-1,3,4,7-tetrahydro-2H-pyrrolo[3′,2′:5,6]pyrido[4,3-d]pyrimidin-2-one]
< 100 nM: all assays above

COc1cc(OC)c(Cl)c(N2Cc3cnc4[nH]c(-c5cnn(CCO)c5)cc4c3N(C)C2=O)c1 [Example 14, 3-(2-Chloro-3,5-dimethoxyphenyl)-8-[1-(2-hydroxyethyl)-1H-pyrazol-4-yl]-1-methyl-1,3,4,7-tetrahydro-2H-pyrrolo[3′,2′:5,6]pyrido[4,3-d]pyrimidin-2-one]
< 100 nM: all assays above

CCN1CCN(Cc2cc3c4c(cnc3[nH]2)CN(c2c(F)c(OC)cc(OC)c2F)C(=O)N4C)CC1 [Example 70, 3-(2,6-difluoro-3,5-dimethoxyphenyl)-8-[(4-ethylpiperazin-1-yl)methyl]-1-methyl-1,3,4,7-tetrahydro-2H-pyrrolo[3′,2′:5,6]pyrido[4,3-d]pyrimidin-2-one]
< 100 nM: all assays above

COc1cc(OC)c(F)c(N2Cc3cnc4[nH]c(CN5CCOCC5)cc4c3N(c3ccccc3F)C2=O)c1F [Example 180, 3-(2,6-difluoro-3,5-dimethoxyphenyl)-1-(2-fluorophenyl)-8-(morpholin-4-ylmethyl)-1,3,4,7-tetrahydro-2H-pyrrolo[3′,2′:5,6]pyrido[4,3-d]pyrimidin-2-one]
< 100 nM: all assays above

CCN1C(=O)N(c2c(F)c(OC)cc(OC)c2F)Cc2cnc3[nH]c(CCN4CC(C#N)C4)cc3c21 [Example 230, 1-{2-[3-(2,6-difluoro-3,5-dimethoxyphenyl)-1-ethyl-2-oxo-2,3,4,7-tetrahydro-1H-pyrrolo[3′,2′:5,6]pyrido[4,3-d]pyrimidin-8-yl]ethyl}azetidine-3-carbonitrile]
< 100 nM: all assays above

COc1cc(OC)c(Cl)c(N2Cc3cnc4[nH]ccc4c3N(c3cnn(C)c3)C2=O)c1F [Example 107, 3-(2-chloro-6-fluoro-3,5-dimethoxyphenyl)-1-(1-methyl-1H-pyrazol-4-yl)-1,3,4,7-tetrahydro-2H-pyrrolo[3′,2′:5,6]pyrido[4,3-d]pyrimidin-2-one]
< 100 nM: all assays above

CCN1C(=O)N(c2c(F)c(OC)cc(OC)c2F)Cc2cnc3[nH]c(CCN4CCOCC4)cc3c21 [Example 185, 3-(2,6-difluoro-3,5-dimethoxyphenyl)-1-ethyl-8-(2-morpholin-4-ylethyl)-1,3,4,7-tetrahydro-2H-pyrrolo[3′,2′:5,6]pyrido[4,3-d]pyrimidin-2-one]
< 100 nM: all assays above

CCN1CCN(Cc2cc3c4c(cnc3[nH]2)CN(c2c(F)c(OC)cc(OC)c2F)C(=O)C4(C)C)CC1 [Example 154, 7-(2,6-difluoro-3,5-dimethoxyphenyl)-2-[(4-ethylpiperazin-1-yl)methyl]-9,9-dimethyl-3,6,7,9-tetrahydro-8H-pyrrolo[2,3-c]-2,7-naphthyridin-8-one]
< 100 nM: all assays above

COc1cc(OC)c(F)c(N2Cc3cnc4[nH]nc(CC#N)c4c3N(C)C2=O)c1F [Example 54, [3-(2,6-Difluoro-3,5-dimethoxyphenyl)-1-methyl-2-oxo-2,3,4,7-tetrahydro-1H-pyrazolo[4′,3′:5,6]pyrido[4,3-d]pyrimidin-9-yl]acetonitrile]
< 100 nM: all assays above

COc1cc(OC)c(F)c(N2Cc3cnc4c(c3N(C3CC3)C2=O)CC(=O)N4)c1F [Example 48, 1-Cyclopropyl-3-(2,6-difluoro-3,5-dimethoxyphenyl)-3,4,7,9-tetrahydro-1H-pyrrolo[3′,2′:5,6]pyrido[4,3-d]pyrimidine-2,8-dione]
< 100 nM: all assays above

CNC(=O)c1cc2c3c(cnc2[nH]1)CN(c1cc(OC)cc(OC)c1Cl)C(=O)N3C [Example 23, 3-(2-Chloro-3,5-dimethoxyphenyl)-N,1-dimethyl-2-oxo-2,3,4,7-tetrahydro-1H-pyrrolo[3′,2′:5,6]pyrido[4,3-d]pyrimidine-8-carboxamide]
< 100 nM: all assays above

COc1cc(OC)c(F)c(N2Cc3cnc4c(c3N(C)C2=O)CC(=O)N4)c1F [Example 37, 3-(2,6-Difluoro-3,5-dimethoxyphenyl)-1-methyl-3,4,7,9-tetrahydro-1H-pyrrolo[3′,2′:5,6]pyrido[4,3-d]pyrimidine-2,8-dione]
< 100 nM: all assays above

COc1cc(OC)c(F)c(N2Cc3cnc4[nH]c(CN5CCN(CCO)CC5)cc4c3N(C)C2=O)c1F [Example 130, 3-(2,6-difluoro-3,5-dimethoxyphenyl)-8-{[4-(2-hydroxyethyl)piperazin-1-yl]methyl}-1-methyl-1,3,4,7-tetrahydro-2H-pyrrolo[3′,2′:5,6]pyrido[4,3-d]pyrimidin-2-one]
< 100 nM: all assays above

COc1cc(OC)c(F)c(N2Cc3cnc4[nH]nc(C)c4c3N(C3CC3)C2=O)c1F [Example 97, 1-cyclopropyl-3-(2,6-difluoro-3,5-dimethoxyphenyl)-9-methyl-1,3,4,7-tetrahydro-2H-pyrazolo[4′,3′:5,6]pyrido[4,3-d]pyrimidin-2-one]
< 100 nM: all assays above

COc1cc(OC)c(F)c(N2Cc3cnc4[nH]ncc4c3N(C[C@H]3CCOC3)C2=O)c1F [Example 178, 3-(2,6-difluoro-3,5-dimethoxyphenyl)-1-[(3R)-tetrahydrofuran-3-ylmethyl]-1,3,4,7-tetrahydro-2H-pyrazolo[4′,3′:5,6]pyrido[4,3-d]pyrimidin-2-one]
< 100 nM: all assays above

CCN1C(=O)N(c2c(F)c(OC)cc(OC)c2F)Cc2cnc3[nH]ncc3c21 [Example 57, 3-(2,6-Difluoro-3,5-dimethoxyphenyl)-1-ethyl-1,3,4,7-tetrahydro-2H-pyrazolo[4′,3′:5,6]pyrido[4,3-d]pyrimidin-2-one]
< 100 nM: all assays above

COc1cc(OC)c(F)c(N2Cc3cnc4[nH]ncc4c3N(c3cccc(C(=O)NC4CC4)c3F)C2=O)c1F [Example 200, N-cyclopropyl-3-[3-(2,6-difluoro-3,5-dimethoxyphenyl)-2-oxo-2,3,4,7-tetrahydro-1H-pyrazolo[4′,3′:5,6]pyrido[4,3-d]pyrimidin-1-yl]-2-fluorobenzamide]
< 100 nM: all assays above

COc1cc(OC)c(F)c(N2Cc3cnc4[nH]c(CCN5CCN(C)CC5)cc4c3C(C)(C)C2=O)c1F [Example 160, 7-(2,6-difluoro-3,5-dimethoxyphenyl)-9,9-dimethyl-2-[2-(4-methylpiperazin-1-yl)ethyl]-3,6,7,9-tetrahydro-8H-pyrrolo[2,3-c]-2,7-naphthyridin-8-one]
< 100 nM: all assays above

COc1cc(OC)c(F)c(N2Cc3cnc4[nH]c(CN5CCOCC5)cc4c3N(c3ccc(F)cc3)C2=O)c1F [Example 189, 3-(2,6-difluoro-3,5-dimethoxyphenyl)-1-(4-fluorophenyl)-8-(morpholin-4-ylmethyl)-1,3,4,7-tetrahydro-2H-pyrrolo[3′,2′:5,6]pyrido[4,3-d]pyrimidin-2-one]
< 100 nM: all assays above
